# From paper PMC5556019, “Targeting Apolipoprotein E/Amyloid β Binding by Peptoid CPO_Aβ17-21 P Ameliorates Alzheimer’s Disease Related Pathology and Cognitive Decline” (Scientific Reports, 2017)
# Numbered stars: 1 amine (or outer) side, 2 acyl side, 3 side chain; on linkers, the order of the positions; unused ones are H or OH. Bridge positions count the residues as written; N and C are the ends. Square brackets hold non-standard residues; d marks the D form. Peptide text beside a SMILES is read from it. ξ: configuration not given here. N(CH2CH2CO)Gly = O=C(CN(CCC(=O)[*:3])[*:1])[*:2]; Nphe = O=C(O)CNCc1ccccc1; Nleu = CC(C)CNCC(=O)O; ξP = O=C(O)C1CCCN1; Sar = CNCC(=O)O
# Experiments:
# APP/PS1 Tg mice = experiment: Brain Aβ and oligomeric Aβ levels by ELISA and western blot; format: in vivo, mouse
# Method: The effect of CPO_Aβ17-21 P on Aβ deposition was tested in APP/PS1 Tg mice with plaque pathology. This AD mouse model develops plaque pathology from the age of 3 months. Animals were divided into two groups and received intraperitoneally (i.p.) injections of 0.2 mg of CPO_ Aβ17–21 P per mouse in sterile saline (n = 11, 5 male, 6 female) or saline alone (n = 10, 5 male, 5 female) as a control twice weekly for 4 months, beginning at age 3 months. During the treatment, veterinary staff monitored animals for any signs of toxicity, such as changes in body weight, physical appearance, and altered behavior. Animals were sacrificed a week after administration of the last treatment dose and behavioral testing. All mouse care and experimental procedures were compliant with guidelines of animal experimentation and were approved by the Institutional Animal Care and Use Committee at the New York University School of Medicine.
# Brains were weighed and homogenized (10% w/v) in tissue homogenization buffer (20 mM Tris base, pH 7.4, 250 mM sucrose, 1 mM EDTA, 1 mM EGTA) with […] phenylmethylsulphonyl fluoride, complete protease inhibitor cocktail and PhosSTOP phosphatase inhibitor cocktail (Roche, Indianapolis, IN, USA) added immediately before homogenization. The extraction of soluble Aβ and total Aβ was according to the method we have published previously, [44]. Brain homogenates were mixed with an equal volume of cold 0.4% diethylamine (DEA)/100 mM NaCl, and subsequently centrifuged at 100,000 × g for 1 hr at 4 °C. The supernatant was neutralized with 1/10 volume of 0.5 M Tris, pH 6.8, flash-frozen on dry ice and stored at −80 °C until used for ELISA analysis as soluble Aβ fraction. […] Soluble and total Aβ levels in the brain were measured by sandwich ELISA which used 6E10 monoclonal antibody as a capture antibody and two detection polyclonal antibodies R162 and R165 specific for Aβ40 and Aβ42, respectively. […]
# Oligomeric Aβ (o-Aβ) levels were determined with the Biosensis Oligomeric Amyloid-Beta ELISA kit (Biosensis, Thebarton, South Australia) following the manufacturer’s instructions. In brief, the unknown concentrations of o-Aβ in samples were measured against a standard containing different concentrations of o-Aβ. […] The TMB reaction was stopped and the absorbance of each well was read at 450 nm. The standards provided a linear curve and the best-fit line determined by linear regression were used to calculate the concentration of Aβ oligomers in the samples
# Brain homogenates were centrifuged at 100,000 × g for 1 hr at 4 °C. The supernatants were collected and the total protein concentrations were determined by the bicinchoninic acid assay (BCA; Pierce, Rockford, IL). […]
# [1] = system: SK-N-SH human neuroblastoma cells; experiment: Toxicity rescue: apoE4-enhanced cytotoxicity of oligomeric Aβ42; format: cell-based; details: Aβ42 10 µM, apoE4 1 µM pre-incubated 6 hrs with inhibitor (Aβ12-28 P 4 µM; CPO_Aβ17-21 P 1 or 4 µM), three days
# Method: Oligomeric Aβ42 was prepared as previously published. To prepare 100 µM oligomeric Aβ42 stock solution, 0.45 mg HFIP pretreated Aβ42 peptide was dissolved into 20 µl fresh dry dimethyl sulfoxide (DMSO) to form 5 mM Aβ42 DMSO solution; then 980 µl ice cold phenol-free Ham’s F-12 cell culture medium (with 146 mg/L L-Glutamine) was added to the Aβ42 DMSO solution followed by incubation at 4 °C for 24 hrs. CPO_ Aβ17–21 P or Aβ12-28 P was pre-incubated with apoE4 in DMEM medium containing 1% N-2 supplement for 6 hrs at 37 °C then mixed with freshly prepared oligomeric Aβ42 and added to SK-N-SH cells. For comparison, cells were incubated with Aβ42 alone and Aβ42 + apoE4, apoE alone, Aβ42 + CPO_Aβ17-21 P and Aβ42 + Aβ12-28 P as additional controls. The final concentration of peptides or peptoids was as follows: Aβ42 10 µM, apoE4 1 µM, Aβ12-28 P 4 µM and CPO_Aβ17-21 P 1 µM or 4 µM. Cells were under different treatments for three days and the cell viability was assessed as described above.
# [2] = Thioflavin T aggregation assay, peptoid incubated alone; format: physicochemical; details: up to 100 µM, 37 °C, 10 days, 100 mM Tris buffer pH 7.4
# Method: Peptide Aβ42 or peptoid CPO_Aβ17-21 P were incubated alone at a concentration of 100 µM over a period of 7–10 days at 37 °C in 100 mM Tris buffer (pH 7.4). […] In aggregation inhibition experiments, apoE4 was pre-incubated with CPO_Aβ17-21 P in a molar ratio of 1:2 for 6 hrs at 37 °C followed by addition to freshly reconstituted Aβ42 on ice (molar ratio 100:1:2, Aβ42:apoE4:peptoid). As a control, Aβ42 was also incubated with CPO_Aβ17-21 P at a molar ratio of 100:2. For peptide Aβ40 all the experiments were conducted under the same conditions as Aβ42 except the peptide concentration was 400 µM. The molar ratio of Aβ40:apoE4:CPO_Aβ17-21 P was 100:1:2. (400 µM Aβ40:4 µM apoE4:8 µM CPO_Aβ17-21 P). Fibril formation by the different peptides at various time points was evaluated by a standard Thioflavin-T assay according to previously published protocols, [33].The samples were diluted in buffer containing 50 mM glycine, 2 µM Thioflavin T pH 9.2, and read on a Molecular Devices SpectraMax M2 spectrophotometer (Sunnyvale, CA) at excitation and emission wavelengths 440 and 482 nm.
structure (smiles),measurement,setting,value
CC(C)CN1CC(=O)N2CCCC2C(=O)N(Cc2ccccc2)CC(=O)N(Cc2ccccc2)CC(=O)N(C)CC(=O)N(CC(N)=O)CCC1=O (stereo not drawn) [CPO_Aβ17-21 P] ([Nleu][ξP][Nphe][Nphe][Sar][N(CH2CH2CO)Gly]-NH2; lactam N-6),Aβ42 in the insoluble (formic acid) brain fraction,"APP/PS1 Tg mice; ELISA, p < 0.0001 versus vehicle",Reduction
same,Aβ40 in the insoluble (formic acid) brain fraction,"APP/PS1 Tg mice; ELISA, p < 0.001 versus vehicle",Reduction
same,Aβ oligomeric species by western blot,"APP/PS1 Tg mice; anti-amyloid antibody 4G8, brain homogenates, p < 0.05 versus vehicle",Reduction
same,Aβ oligomeric species by ELISA,"APP/PS1 Tg mice; brain homogenates, p < 0.05 versus vehicle",Reduction
same,neutralization of apoE4-enhanced cytotoxicity of Aβ42,[1],neutralized
same,formation of aggregates or fibrils by the peptoid alone,[2],did not produce aggregates or fibrils
